The source of these data is ChEMBL document CHEMBL4616664, “Antineoplastic Agents. 607. Emetine Auristatins” (2020).

As a reminder, the GI50 is the concentration that inhibits growth by half. Low readings indicate more potent growth inhibition, high ones less potent growth inhibition.

Holding throughout (type): functional
For experiment [1], the system named is KM-20L2. As to the kind of experiment: Growth inhibition of human KM20L2 cells incubated for 48 hrs by sulforhodamine B assay. The settings on record: KM-20L2, 48 h. Background: Sulforhodamine B stains cellular protein and so reports cell mass.
The subject of experiment [2] is MCF7. The experiment in a line: Growth inhibition of human MCF7 cells incubated for 48 hrs by sulforhodamine B assay. The note with it: MCF7, 48 h.
In experiment [3] the test system is NCI-H460. As to the kind of experiment: Growth inhibition of human NCI-H460 cells incubated for 48 hrs by sulforhodamine B assay. The note with it: NCI-H460, 48 h.
Experiment [4] has as its system DU-145. The experiment in a line: Growth inhibition of human DU145 cells incubated for 48 hrs by sulforhodamine B assay. The note with it: DU-145, 48 h.
Experiment [5] concerns BXPC-3. The experiment in a line: Growth inhibition of human BxPC3 cells incubated for 48 hrs by sulforhodamine B assay. The note with it: BXPC-3, 48 h.
Experiment [6] deals with SF-268. As to the kind of experiment: Growth inhibition of human SF268 cells incubated for 48 hrs by sulforhodamine B assay. The note with it: SF-268, 48 h.
Experiment [7] relates to Panel NCI-60 (60 carcinoma cell lines). As to the kind of experiment: Growth inhibition of human NCI60 cells.

Molecules are shown by their SMILES. Structures can show the parent of a compound that is named as a salt. Bounds are passed on as bounds.

With `CC[C@H]1CN2CCc3cc(OC)c(OC)cc3[C@@H]2C[C@@H]1C[C@@H]1c2cc(OC)c(OC)cc2CCN1CCNC(=O)[C@H](C)[C@@H](OC)[C@@H]1CCCN1C(=O)C[C@@H](OC)[C@H]([C@@H](C)CC)N(C)C(=O)[C@@H](NC(=O)[C@H](C(C)C)N(C)C)C(C)C`, the 50% growth inhibitory concentration (GI50) is 362 nM in experiment [1]; 118 nM in experiment [2]; 4530 nM in experiment [3]; 181 nM in experiment [4]; 1900 nM in experiment [5]; 272 nM in experiment [6].
For the compound `CC[C@H]1CN2CCc3cc(OC)c(OC)cc3[C@@H]2C[C@@H]1C[C@@H]1c2cc(OC)c(OC)cc2CCN1C(=O)CCN.O=C(O)C(F)(F)F.O=C(O)C(F)(F)F`, the GI50 in experiment [1] is > 10 µg/mL; in experiment [2], > 10 µg/mL; in experiment [3] it was > 10 µg/mL; in experiment [4], 10.1 µg/mL; in experiment [5], 10.3 µg/mL; in experiment [6], > 10 µg/mL.
Turning to `CC[C@H]1CN2CCc3cc(OC)c(OC)cc3[C@@H]2C[C@@H]1C[C@@H]1c2cc(OC)c(OC)cc2CCN1C(=O)[C@H](C)[C@@H](OC)[C@@H]1CCCN1`, the GI50 turned out to be 3420 nM in experiment [1]; 1600 nM in experiment [2]; 5700 nM in experiment [3]; 3420 nM in experiment [4]; 2390 nM in experiment [5]; 3650 nM in experiment [6].
As to `CC[C@H]1CN2CCc3cc(OC)c(OC)cc3[C@@H]2C[C@@H]1C[C@@H]1c2cc(OC)c(OC)cc2CCN1C(=O)CCNC(=O)OC(C)(C)C`, the 50% growth inhibitory concentration (GI50) in experiment [1] is > 10 µg/mL; in experiment [2], 10 µg/mL; in experiment [3] it was > 10 µg/mL; in experiment [4] it was > 10 µg/mL; in experiment [5], > 10 µg/mL; in experiment [6], > 10 µg/mL.
For `CC[C@H]1CN2CCc3cc(OC)c(OC)cc3[C@@H]2C[C@@H]1C[C@@H]1c2cc(OC)c(OC)cc2CCN1C(=O)[C@H](C)[C@@H](OC)[C@@H]1CCCN1C(=O)C[C@@H](OC)[C@H]([C@@H](C)CC)N(C)C(=O)[C@@H](NC(=O)[C@H](C(C)C)N(C)C)C(C)C`, the GI50 in experiment [1] turned out to be 35.8 nM; in experiment [2] it was 35.8 nM; in experiment [3], 198 nM; in experiment [4] it was 12.3 nM; in experiment [5], 386 nM; in experiment [6] it was 30.2 nM.
Regarding `CC[C@H]1CN2CCc3cc(OC)c(OC)cc3[C@@H]2C[C@@H]1C[C@@H]1c2cc(OC)c(OC)cc2CCN1C(=O)CCNC(=O)[C@H](C)[C@@H](OC)[C@@H]1CCCN1C(=O)OC(C)(C)C`, the GI50 in experiment [1] is > 10 µg/mL; in experiment [2], > 10 µg/mL; in experiment [3], > 10 µg/mL; in experiment [4], 10 µg/mL; in experiment [5], > 10 µg/mL; in experiment [6], > 10 µg/mL.
Take `CC[C@H]1CN2CCc3cc(OC)c(OC)cc3[C@@H]2C[C@@H]1C[C@@H]1c2cc(OC)c(OC)cc2CCN1C(=O)CCNC(=O)[C@H](C)[C@@H](OC)[C@@H]1CCCN1C(=O)C[C@@H](OC)[C@H]([C@@H](C)CC)N(C)C(=O)[C@@H](NC(=O)[C@H](C(C)C)N(C)C)C(C)C`: the GI50 in experiment [1] is 194 nM; in experiment [2] it was 159 nM; in experiment [3], 2830 nM; in experiment [4], 97.2 nM; in experiment [5], 3800 nM; in experiment [6], 186 nM.
For the compound `CC[C@H]1CN2CCc3cc(OC)c(OC)cc3[C@@H]2C[C@@H]1C[C@H]1NCCc2cc(OC)c(OC)cc21` [EMETINE HYDROCHLORIDE], the GI50 in experiment [1] came to 47 nM; in experiment [2] it was 54.2 nM; in experiment [4] it was 36.1 nM; in experiment [5] it was 56 nM.
Consider `CC[C@H]1CN2CCc3cc(OC)c(OC)cc3[C@@H]2C[C@@H]1C[C@H]1NCCc2cc(OC)c(OC)cc21` [EMETINE], for which the GI50 in experiment [7] was found to be 27 nM.
